Test results reported in patent publication US20230265151A1, “GIP/GLP1 CO-AGONIST COMPOUNDS” (priority 2020, published 2023).
Like-named read-outs stand apart in the source and are kept apart here.

What was measured:
[1] = biological target: T1, human Gcg receptor (hGcgR) (Homo sapiens, UniProt P47871); experiment: [125I]-Glucagon binding, SPA with membranes of HEK293 cells expressing hGcgR
T1 construct: expressed in transfected cells; crude membranes

[2] = biological target: T2, human GLP-1 receptor (hGLP-1R) (Homo sapiens, UniProt P43220); experiment: [125I]-GLP-1 binding, SPA with membranes of HEK293 cells expressing hGLP-1R
T2 construct: expressed in transfected cells; crude membranes
T2 sequence (P43220 24-463): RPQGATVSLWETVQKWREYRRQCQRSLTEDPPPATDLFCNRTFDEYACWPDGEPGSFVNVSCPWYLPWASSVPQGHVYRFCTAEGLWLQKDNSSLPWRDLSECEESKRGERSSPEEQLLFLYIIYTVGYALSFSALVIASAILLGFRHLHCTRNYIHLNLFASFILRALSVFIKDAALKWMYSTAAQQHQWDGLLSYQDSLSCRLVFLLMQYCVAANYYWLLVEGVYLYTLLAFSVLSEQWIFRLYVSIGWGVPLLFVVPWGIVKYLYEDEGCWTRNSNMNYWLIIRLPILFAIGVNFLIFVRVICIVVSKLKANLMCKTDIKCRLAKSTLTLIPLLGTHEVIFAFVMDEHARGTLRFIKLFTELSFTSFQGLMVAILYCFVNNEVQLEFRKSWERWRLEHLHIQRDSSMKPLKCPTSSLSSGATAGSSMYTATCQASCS

hGIPR = biological target: T3, hGIPR (Homo sapiens, UniProt P48546); experiment: Functional cAMP formation (HTRF) in HEK-293 clonal cells expressing hGIPR, 0.1% bovine casein, without or with 1.0% human serum albumin; assay type: cell-based; details: for EC50: cAMP
T3 construct: expressed in transfected cells
T3 sequence (P48546 22-466): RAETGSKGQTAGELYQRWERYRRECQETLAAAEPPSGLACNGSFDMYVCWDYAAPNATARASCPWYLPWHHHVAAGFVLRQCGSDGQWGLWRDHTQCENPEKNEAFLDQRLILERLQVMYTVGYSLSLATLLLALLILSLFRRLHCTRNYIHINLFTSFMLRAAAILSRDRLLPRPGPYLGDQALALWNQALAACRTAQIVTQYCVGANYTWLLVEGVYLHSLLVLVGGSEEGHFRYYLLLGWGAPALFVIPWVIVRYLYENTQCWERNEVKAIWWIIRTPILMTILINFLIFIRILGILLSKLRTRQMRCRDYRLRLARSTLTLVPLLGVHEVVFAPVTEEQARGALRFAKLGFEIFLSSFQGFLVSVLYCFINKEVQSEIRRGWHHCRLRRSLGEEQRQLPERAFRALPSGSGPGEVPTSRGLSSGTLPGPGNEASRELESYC
Outline: (§1)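 Readings of the HTRF 665/620 nm ratio, which falls as cAMP rises, were converted to nM cAMP using a standard curve after 30 min peptide exposure at 37° C.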

hGLP-1R = hGLP-1R (Homo sapiens, UniProt P43220); experiment: Functional cAMP formation (HTRF) in HEK-293 clonal cells expressing hGLP-1R, 0.1% bovine casein, without or with 1.0% human serum albumin; assay type: cell-based; parameters: expressed in transfected cells; details: for EC50: cAMP, 0.1% bovine casein (no human serum albumin), geometric mean
Chain of hGLP-1R (P43220 24-463): as the sequence (P43220 24-463) above
Outline: as §1

[3] = human GcgR, geometric mean (SEM, n), read-out: Binding Affinity Ki, nM (SEM, n) hGCGR
[4] = human GLP-1R, geometric mean (SEM, n), read-out: Binding Affinity Ki, nM (SEM, n) hGLP-1R
[5] = HEK293, 0.1% bovine casein and 1.0% human serum albumin, 37° C., percent of maximal response to GIP(1-42)NH2, read-out: hGIPR Emax, % ± SEM
[6] = HEK293, percent of maximal response to GIP(1-42)NH2, 37° C., 0.1% bovine casein, arithmetic mean, read-out: hGIPR Emax, % ± SEM
[7] = HEK293, 0.1% bovine casein and 1.0% human serum albumin, 37° C., percent of maximal response to GLP-1(7-36)NH2, read-out: hGLP-1R Emax, % ± SEM
[8] = HEK293, percent of maximal response to GLP-1(7-36)NH2, 37° C., 0.1% bovine casein, arithmetic mean, read-out: hGLP-1R Emax, % ± SEM
[9] = incubated at 37° C., read-out: hGLP-1R EC50, nM (SEM, n)

T1 sequence (P47871 26-477): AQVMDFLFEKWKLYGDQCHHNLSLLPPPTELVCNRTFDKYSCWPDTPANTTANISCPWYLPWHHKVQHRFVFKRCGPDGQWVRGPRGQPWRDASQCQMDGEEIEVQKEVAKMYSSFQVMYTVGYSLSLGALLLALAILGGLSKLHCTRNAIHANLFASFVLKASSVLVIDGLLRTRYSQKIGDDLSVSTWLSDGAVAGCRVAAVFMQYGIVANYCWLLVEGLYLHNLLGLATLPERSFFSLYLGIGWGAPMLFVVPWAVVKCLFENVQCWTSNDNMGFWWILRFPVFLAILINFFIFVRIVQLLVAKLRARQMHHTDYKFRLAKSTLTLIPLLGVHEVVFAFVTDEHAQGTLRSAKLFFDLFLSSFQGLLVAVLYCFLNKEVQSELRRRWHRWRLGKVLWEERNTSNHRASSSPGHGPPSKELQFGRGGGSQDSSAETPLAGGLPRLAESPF

| Compound | Ki [1, 3] [nM] | Ki [2, 4] [nM] | Emax (hGIPR; [5]) [%] | Emax (hGIPR; [6]) [%] | Emax (hGLP-1R; [7]) [%] | Emax (hGLP-1R; [8]) [%] | EC50 (hGLP-1R; [9]) [nM] | Ki [1] [nM] | Ki [2] [nM] | Emax (hGIPR; HEK293, read-out: hGIPR Emax, % ± SEM, cAMP, 37° C., 0.1% bovine casein and 1.0% human serum albumin, percent of maximal response to GIP(1-42)NH2) [%] | Emax (hGIPR; HEK293, read-out: hGIPR Emax, % ± SEM, cAMP, 37° C., 0.1% bovine casein, percent of maximal response to GIP(1-42)NH2, arithmetic mean) [%] | EC50 (hGIPR; hGIPR EC50, nM (SEM, n), 37° C., 0.1% bovine casein (no human serum albumin), geometric mean) [nM] | EC50 (hGIPR; hGIPR EC50, nM (SEM, n), 37° C., 0.1% bovine casein and 1.0% human serum albumin, geometric mean (SEM, n)) [nM] | Emax (hGLP-1R; HEK293, read-out: hGLP-1R Emax, % ± SEM, cAMP, 37° C., 0.1% bovine casein and 1.0% human serum albumin, percent of maximal response to GLP-1(7-36)NH2) [%] | Emax (hGLP-1R; HEK293, read-out: hGLP-1R Emax, % ± SEM, cAMP, 37° C., 0.1% bovine casein, percent of maximal response to GLP-1(7-36)NH2, arithmetic mean) [%] | EC50 (hGLP-1R; hGLP-1R EC50, nM (SEM, n), 37° C.) [nM] | EC50 (hGIPR; incubated at 37° C., 0.1% bovine casein (no human serum albumin), geometric mean, read-out: hGIPR EC50, nM (SEM, n)) [nM] |
| --- | --- | --- | --- | --- | --- | --- | --- | --- | --- | --- | --- | --- | --- | --- | --- | --- | --- |
| CC[C@H](C)[C@H](NC(=O)[C@H](CC(C)C)NC(=O)[C@](C)(Cc1ccc(O)cc1)NC(=O)[C@@H](CCC(=O)O)NC(=O)[C@@H](NC(=O)[C@H](Cc1ccccc1)NC(=O)[C@H](CCC(=O)O)NC(=O)C(C)(C)NC(=O)[C@H](CCC(N)=O)NC(=O)[C@H](C)NC(=O)[C@H](CCCCNC(=O)COCCOCCNC(=O)COCCOCCNC(=O)CC[C@H](NC(=O)CCCCCCCCCCCCC(=O)O)C(=O)O)NC(=O)[C@H](CCCN)NC(=O)[C@H](CC(=O)O)NC(=O)[C@H](CC(C)C)NC(=O)[C@](C)(CC(C)C)NC(=O)[C@@H](NC(=O)C(C)(C)NC(=O)[C@@H](NC(=O)[C@H](CC(=O)O)NC(=O)[C@H](CO)NC(=O)[C@@H](NC(=O)[C@](C)(Cc1ccccc1F)NC(=O)[C@@H](NC(=O)CNC(=O)[C@H](CCC(=O)O)NC(=O)C(C)(C)NC(=O)[C@@H](N)Cc1ccc(O)cc1)[C@@H](C)O)[C@@H](C)O)C(C)C)[C@@H](C)CC)[C@@H](C)CC)C(=O)N[C@@H](CCC(=O)O)C(=O)NCC(=O)NCC(=O)N[C@@H](CCCCNC(=O)COCCOCCNC(=O)COCCOCCNC(=O)CC[C@H](NC(=O)CCCCCCCCCCCCC(=O)O)C(=O)O)C(=O)N[C@@H](CO)C(=O)N[C@@H](CO)C(=O)NCC(=O)N[C@@H](C)C(=O)N1CCC[C@H]1C(=O)N1CCC[C@H]1C(=O)N1CCC[C@H]1C(=O)N[C@@H](CO)C(N)=O [Example 91] | > 955 | 1.26 | 91.9 | 92.8 ± 4.69 | 89.8 | 94 ± 5.44 | 0.153 | – | – | – | – | – | – | – | – | – | – |
| CC[C@H](C)[C@H](NC(=O)[C@H](CC(C)C)NC(=O)[C@](C)(Cc1ccc(O)cc1)NC(=O)[C@H](CCCCNC(=O)CC[C@H](NC(=O)COCCOCCNC(=O)COCCOCCNC(=O)CC[C@H](NC(=O)CCCCCCCCCOc1ccc(C(=O)O)cc1)C(=O)O)C(=O)O)NC(=O)[C@@H](NC(=O)[C@H](Cc1ccccc1)NC(=O)[C@H](CCCN)NC(=O)C(C)(C)NC(=O)[C@H](CCC(N)=O)NC(=O)[C@H](C)NC(=O)[C@H](CCC(N)=O)NC(=O)[C@H](CCCN)NC(=O)[C@H](CC(=O)O)NC(=O)[C@H](CC(C)C)NC(=O)[C@](C)(CC(C)C)NC(=O)[C@@H](NC(=O)C(C)(C)NC(=O)[C@H](Cc1ccncc1)NC(=O)[C@H](CC(=O)O)NC(=O)[C@H](CO)NC(=O)[C@@H](NC(=O)[C@](C)(Cc1ccccc1F)NC(=O)[C@@H](NC(=O)CNC(=O)[C@H](CCC(=O)O)NC(=O)C(C)(C)NC(=O)[C@@H](N)Cc1ccc(O)cc1)[C@@H](C)O)[C@@H](C)O)[C@@H](C)CC)[C@@H](C)CC)C(=O)N[C@@H](CCCCNC(=O)CC[C@H](NC(=O)COCCOCCNC(=O)COCCOCCNC(=O)CC[C@H](NC(=O)CCCCCCCCCOc1ccc(C(=O)O)cc1)C(=O)O)C(=O)O)C(=O)NCC(=O)NCC(=O)N1CCC[C@H]1C(=O)N[C@@H](CO)C(=O)N[C@@H](CO)C(=O)NCC(=O)N[C@@H](C)C(=O)N1CCC[C@H]1C(=O)N1CCC[C@H]1C(=O)N1CCC[C@H]1C(=O)N[C@@H](CO)C(N)=O [Example 483] | – | – | – | – | – | – | – | 151 | 0.263 | 92.6 | 97.4 | 0.0138 | 0.297 | 113 | 118 | 0.169 | – |
| CC[C@H](C)[C@H](NC(=O)[C@H](CC(C)C)NC(=O)[C@](C)(Cc1ccc(O)cc1)NC(=O)[C@@H](CCC(=O)O)NC(=O)[C@@H](NC(=O)[C@H](Cc1ccccc1)NC(=O)[C@H](CCC(=O)O)NC(=O)C(C)(C)NC(=O)[C@H](CCC(N)=O)NC(=O)[C@H](C)NC(=O)[C@H](CCCCNC(=O)COCCOCCNC(=O)COCCOCCNC(=O)CC[C@H](NC(=O)CCCCCCCCCCCCC(=O)O)C(=O)O)NC(=O)[C@H](CCCN)NC(=O)[C@H](CC(=O)O)NC(=O)[C@H](CC(C)C)NC(=O)[C@](C)(CC(C)C)NC(=O)[C@@H](NC(=O)[C@](C)(CO)NC(=O)[C@@H](NC(=O)[C@H](CC(=O)O)NC(=O)[C@H](CO)NC(=O)[C@@H](NC(=O)[C@](C)(Cc1ccccc1F)NC(=O)[C@@H](NC(=O)CNC(=O)[C@H](CCC(=O)O)NC(=O)C(C)(C)NC(=O)[C@@H](N)Cc1ccc(O)cc1)[C@@H](C)O)[C@@H](C)O)C(C)C)[C@@H](C)CC)[C@@H](C)CC)C(=O)N[C@@H](CCC(=O)O)C(=O)NCC(=O)NCC(=O)N[C@@H](CCCCNC(=O)COCCOCCNC(=O)COCCOCCNC(=O)CC[C@H](NC(=O)CCCCCCCCCCCCC(=O)O)C(=O)O)C(=O)N[C@@H](CO)C(=O)N[C@@H](CO)C(=O)NCC(=O)N[C@@H](C)C(=O)N1CCC[C@H]1C(=O)N1CCC[C@H]1C(=O)N1CCC[C@H]1C(=O)N[C@@H](CO)C(N)=O [Example 212] | > 955 | 1.17 | 81 | 100 | 91 | 94.7 | 0.265 | – | – | – | – | – | – | – | – | – | 0.0385 |
